Data taken from ChEMBL document CHEMBL4177523, “Ser422 phosphorylation blocks human Tau cleavage by caspase-3: Biochemical implications to Alzheimer's Disease” (Bioorg Med Chem Lett, 2017).
Calls of active or inactive are those of the source. No cut-off for these calls is given here. Square brackets hold non-standard residues; d marks the D form. Peptide text beside a SMILES is read from it. ξ: configuration not given here. ξpS = NC(COP(=O)(O)O)C(=O)O

Tests used:
[1] = Retention time of the compound by mass spectrometric analysis; format: physicochemical
Caspase-3 (Homo sapiens) [2] = biological target: T1, Caspase-3 (Homo sapiens) (UniProt P42574); assay: Substrate activity at recombinant human caspase-3 assessed as enzyme-mediated compound cleavage after 1 hr by RP-HPLC analysis
T1 sequence (whole entry): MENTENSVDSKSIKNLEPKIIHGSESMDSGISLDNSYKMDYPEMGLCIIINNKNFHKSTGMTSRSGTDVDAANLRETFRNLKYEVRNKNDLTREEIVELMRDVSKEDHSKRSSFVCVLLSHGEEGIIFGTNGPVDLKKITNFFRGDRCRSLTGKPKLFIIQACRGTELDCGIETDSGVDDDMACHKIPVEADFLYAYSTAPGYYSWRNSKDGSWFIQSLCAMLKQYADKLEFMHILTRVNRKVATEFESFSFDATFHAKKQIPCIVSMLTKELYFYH

Caspase-3 (Homo sapiens) [3] = biological target: T1, Caspase-3 (Homo sapiens); assay: Substrate activity at recombinant human caspase-3 assessed as Ac-STGSIDMVD-OH formation after 1 hr by RP-HPLC analysis
Caspase-3 (Homo sapiens) [4] = biological target: T1, Caspase-3 (Homo sapiens); assay: Substrate activity at recombinant human caspase-3 assessed as Ac-STGSIDMVD-OH formation after 1 hr by MALDI-TOF/MS analysis
Caspase-3 (Homo sapiens) [5] = biological target: T1, Caspase-3 (Homo sapiens); assay: Substrate activity at recombinant human caspase-3 assessed as SPQL-CONH2 formation after 1 hr by RP-HPLC analysis
Caspase-3 (Homo sapiens) [6] = biological target: T1, Caspase-3 (Homo sapiens); assay: Substrate activity at recombinant human caspase-3 assessed as SPQLAT-CONH2 formation after 1 hr by RP-HPLC analysis
Caspase-3 (Homo sapiens) [7] = biological target: T1, Caspase-3 (Homo sapiens); assay: Substrate activity at recombinant human caspase-3 assessed as SPQLAT-CONH2 formation after 1 hr by MALDI-TOF/MS analysis
Caspase-3 (Homo sapiens) [8] = biological target: T1, Caspase-3 (Homo sapiens); assay: Substrate activity at recombinant human caspase-3 assessed as SIDMVD formation after 1 hr by RP-HPLC analysis
Caspase-3 (Homo sapiens) [9] = biological target: T1, Caspase-3 (Homo sapiens); assay: Substrate activity at recombinant human caspase-3 assessed as SIDMVD formation after 1 hr by MALDI-TOF/MS analysis
Caspase-3 (Homo sapiens) [10] = biological target: T1, Caspase-3 (Homo sapiens); assay: Substrate activity at 3-fold excess recombinant human caspase-3 assessed as SIDMVD formation by RP-HPLC analysis; details: TDE = time-dependent effect
Caspase-3 (Homo sapiens) [11] = biological target: T1, Caspase-3 (Homo sapiens); assay: Substrate activity at 3-fold excess recombinant human caspase-3 assessed as SPQLAT formation by RP-HPLC analysis; details: TDE = time-dependent effect
Caspase-3 (Homo sapiens) [12] = biological target: T1, Caspase-3 (Homo sapiens); assay: Substrate activity at recombinant human caspase-3 assessed as enzyme-mediated compound cleavage after 1 hr in presence of casapase-3 inhibitor Ac-DQVD-aldehyde by RP-HPLC analysis
Caspase-3 (Homo sapiens) [13] = biological target: T1, Caspase-3 (Homo sapiens); assay: Inhibition of recombinant human caspase-3 at 50 uM using fluorogenic peptide substrate Ac-DEVD-MCA after 30 mins incubation by spectrofluorometric method

| SMILES | Retention_time [1] [min] | Activity (Caspase-3 (Homo sapiens) [2]) | other results |
| --- | --- | --- | --- |
| CC[C@H](C)[C@H](NC(=O)[C@@H](N)CO)C(=O)N[C@@H](CC(=O)O)C(=O)N[C@@H](CCSC)C(=O)N[C@H](C(=O)N[C@@H](CC(=O)O)C(=O)NC(COP(=O)(O)O)C(=O)N1CCC[C@H]1C(=O)N[C@@H](CCC(N)=O)C(=O)N[C@@H](CC(C)C)C(=O)N[C@@H](C)C(=O)N[C@H](C(N)=O)[C@@H](C)O)C(C)C (some centres not stated) (H-SIDMVD[ξpS]PQLAT-NH2) | 26.3 | inactive |  |
| CC[C@H](C)[C@H](NC(=O)[C@H](CO)NC(=O)CNC(=O)[C@@H](NC(=O)[C@H](CO)NC(C)=O)[C@@H](C)O)C(=O)N[C@@H](CC(=O)O)C(=O)N[C@@H](CCSC)C(=O)N[C@H](C(=O)N[C@@H](CC(=O)O)C(=O)N[C@@H](CO)C(=O)N1CCC[C@H]1C(=O)N[C@@H](CCC(N)=O)C(=O)N[C@@H](CC(C)C)C(N)=O)C(C)C (Ac-STGSIDMVDSPQL-NH2) | 31.8 |  | Activity (Caspase-3 (Homo sapiens) [3]): Active; Activity (Caspase-3 (Homo sapiens) [4]): Active; Activity (Caspase-3 (Homo sapiens) [5]): Active |
| CC[C@H](C)[C@H](NC(=O)[C@@H](N)CO)C(=O)N[C@@H](CC(=O)O)C(=O)N[C@@H](CCSC)C(=O)N[C@H](C(=O)N[C@@H](CC(=O)O)C(=O)O)C(C)C (H-SIDMVD-OH) | 18.1 |  |  |
| CC(C)C[C@H](NC(=O)[C@H](CCC(N)=O)NC(=O)[C@@H]1CCCN1C(=O)[C@@H](N)CO)C(=O)N[C@@H](C)C(=O)N[C@H](C(N)=O)[C@@H](C)O (H-SPQLAT-NH2) | 25.7 |  |  |
| CC[C@H](C)[C@H](NC(=O)[C@H](CO)NC(=O)CNC(=O)[C@@H](NC(=O)[C@H](CO)NC(C)=O)[C@@H](C)O)C(=O)N[C@@H](CC(=O)O)C(=O)N[C@@H](CCSC)C(=O)N[C@H](C(=O)N[C@@H](CC(=O)O)C(=O)NC(COP(=O)(O)O)C(=O)N1CCC[C@H]1C(=O)N[C@@H](CCC(N)=O)C(=O)N[C@@H](CC(C)C)C(=O)N[C@@H](C)C(N)=O)C(C)C (some centres not stated) (Ac-STGSIDMVD[ξpS]PQLA-NH2) |  | inactive |  |
| CC[C@H](C)[C@H](NC(=O)[C@@H](N)CO)C(=O)N[C@@H](CC(=O)O)C(=O)N[C@@H](CCSC)C(=O)N[C@H](C(=O)N[C@@H](CC(=O)O)C(=O)N[C@@H](CO)C(=O)N1CCC[C@H]1C(=O)N[C@@H](CCC(N)=O)C(=O)N[C@@H](CC(C)C)C(=O)N[C@@H](C)C(=O)N[C@H](C(N)=O)[C@@H](C)O)C(C)C (H-SIDMVDSPQLAT-NH2) | 27.9 |  | Activity (Caspase-3 (Homo sapiens) [6]): Active; Activity (Caspase-3 (Homo sapiens) [7]): Active; Activity (Caspase-3 (Homo sapiens) [8]): Active; Activity (Caspase-3 (Homo sapiens) [9]): Active; Activity (Caspase-3 (Homo sapiens) [10]): Tde; Activity (Caspase-3 (Homo sapiens) [11]): Tde; Activity (Caspase-3 (Homo sapiens) [12]): inactive |
| CC[C@H](C)[C@H](NC(=O)[C@H](CO)NC(=O)CNC(=O)[C@@H](NC(=O)[C@H](CO)NC(C)=O)[C@@H](C)O)C(=O)N[C@@H](CC(=O)O)C(=O)N[C@@H](CCSC)C(=O)N[C@H](C(=O)N[C@H](CC(=O)O)C(=O)N[C@@H](CO)C(=O)N1CCC[C@H]1C(=O)N[C@@H](CCC(N)=O)C(=O)N[C@@H](CC(C)C)C(=O)N[C@@H](C)C(N)=O)C(C)C |  | inactive |  |
| CC[C@H](C)[C@H](NC(=O)[C@H](CO)NC(=O)CNC(=O)[C@@H](NC(=O)[C@H](CO)NC(C)=O)[C@@H](C)O)C(=O)N[C@@H](CC(=O)O)C(=O)N[C@@H](CCSC)C(=O)N[C@H](C(=O)N[C@@H](CC(=O)O)C(=O)N[C@H](CO)C(=O)N1CCC[C@H]1C(=O)N[C@@H](CCC(N)=O)C(=O)N[C@@H](CC(C)C)C(=O)N[C@@H](C)C(N)=O)C(C)C |  | Active |  |
| CC(=O)N[C@@H](CC(=O)O)C(=O)N[C@@H](CCC(N)=O)C(=O)N[C@H](C(=O)N[C@H](C=O)CC(=O)O)C(C)C (Ac-DQVD-aldehyde) |  |  | inhibition (Caspase-3 (Homo sapiens) [13]): 97.3% |
| CC[C@H](C)[C@H](NC(=O)[C@H](CO)NC(=O)CNC(=O)[C@@H](NC(=O)[C@H](CO)NC(C)=O)[C@@H](C)O)C(=O)N[C@@H](CC(=O)O)C(=O)N[C@@H](CCSC)C(=O)N[C@H](C(=O)N[C@@H](CC(=O)O)C(=O)O)C(C)C (Ac-STGSIDMVD-OH) | 30.6 |  |  |
| CC(C)C[C@H](NC(=O)[C@H](CCC(N)=O)NC(=O)[C@@H]1CCCN1C(=O)[C@@H](N)CO)C(N)=O (H-SPQL-NH2) | 19.5 |  |  |
